Laboratory results published in patent US10010610B2, “Compositions and methods for the treatment of intraocular neovascularization and/or leakage” (Retinal Therapies LLC, priority 2014, dated 2018).

Columns and labels:
in vivo = details: rabbit, topical, 0.25 % w/v
[1] = Slit lamp and fundus exams after topical ocular dosing in rabbits; details: Example 1 formulation, topical twice-a-day to both eyes, treated eyes
[2] = octanol-water partition coefficient at pH 7.0; cited from earlier work

concentration at 5 day (in vivo; pigmented, plasma): < 12.5 ng/mL | concentration at 5 day (in vivo; posterior vitreous): 0.99 nM
SMILES: COc1cc2nccc(Oc3ccc(NC(=O)C4(C(=O)Nc5ccc(F)cc5)CC4)cc3)c2cc1OC [cabozantinib]
slit lamp and fundus exams [1]: completely normal except for slight conjuctival follicle formation | Log P [2]: 3.0
